Source: US20130058922A1 (priority 2009, published 2013)
Where “and” joins values, the source holds several entries; their conditions need not be identical. Equal entries are not always repeated. Where two headings read alike, the source gives them in different places.

Tests used:
[1] = tested on: circulating tumour cells (CTCs) in the blood; details: in vitro; tumour cells in blood of 13 patients (breast, colon, prostate, pancreas cancer); MAINTRAC
From the text: This method allows the detection of smallest amounts of tumour cells in blood and other body fluids (Pachmann K., Clement J. H., Schneider C.-P., Willen B., Camara O., Pachmann U., Hoeffken K., Standardized quantification of circulating peripheral tumour cells from lung and breast cancer. Clin. Chem. Lab-Med., 2005, 43; 617-627).

[2] = tested on: circulating tumour cells (CTCs)
Experimental: (§1) Depending on the dose, the infusion therapy was applied for 3-5 hours.

[3] = tested on: leukocytes / dysfunctional leukocyte precursors
Experimental: as §1

[4] = Clinical observation of patients during and after choline infusion therapy (vital parameters, tolerability, condition)
[5] = Gastric CA, one i.v. choline therapy for 3 to 5 hours, MainTrac
[6] = Histiocytoma, one i.v. choline therapy for 3 to 5 hours, MainTrac
[7] = Prostate CA, one i.v. choline therapy for 3 to 5 hours, MainTrac
[8] = mean over all tumour types of Table 1, one i.v. choline therapy for 3 to 5 hours, MainTrac
[9] = mean of Table 2 leukaemia measurements, one i.v. choline therapy for 3 to 5 hours

In the case of `C[N+](C)(C)CCO` [choline], the cytosensitivity to choline [1] is reported as “up to 95%”, the CTCs after therapy ([2]; Gastric CA, after one i.v. choline therapy for 3 to 5 hours, MainTrac) is reported as 1.75 million tumour cells and the “CTCs After − before Difference (Δ)” value [2, 5] is reported as −12.25 million tumour cells. The “CTCs After − before Δ % before” value [2, 5] was −87.00%, the CTCs after therapy ([2]; Histiocytoma, after one i.v. choline therapy for 3 to 5 hours, MainTrac) was 65.00 million tumour cells and the “CTCs After − before Difference (Δ)” value [2, 6] was −307.50 million tumour cells. The “CTCs After − before Δ % before” value [2, 6] was −82.00%, the CTCs after therapy ([2]; Pancreas CA, after one i.v. choline therapy for 3 to 5 hours, MainTrac) was 3.00 million tumour cells and 2.75 million tumour cells and the CTCs after therapy ([2]; Prostate CA, after one i.v. choline therapy for 3 to 5 hours, MainTrac) was 8.75 million tumour cells. For the same compound, the “CTCs After − before Difference (Δ)” value [2, 7] was −3.75 million tumour cells, the “CTCs After − before Δ % before” value [2, 7] was −30.00% and the “After − before Δ% before (after 4 weeks), mean values” ([2]; Table 3 mean of leukaemia patient leukocytes and breast cancer patient CTCs, 4 weeks later) was −40.00%. The “After − before Δ% before, mean values” ([2]; Table 3 mean of leukaemia patient leukocytes and breast cancer patient CTCs, directly after therapy) was −30.00%, the “MainTrac (CTCs), After 4 weeks value” ([2]; breast cancer patient, after another 4 weeks without therapy) was 5.25 million tumour cells and the “MainTrac (CTCs), After − before Δ% before (after 4 weeks)” value ([2]; breast cancer patient, after another 4 weeks without therapy, relative to initial value) was −72.00%. For the same compound, the “CTCs after therapy, mean value” ([2]; mean over all tumour types of Table 1, after one i.v. choline therapy for 3 to 5 hours, MainTrac) was 9.75 million tumour cells, the “CTCs After − before Difference (Δ), mean value” [2, 8] was −37 million tumour cells and −37.00 million tumour cells and the “CTCs After − before Δ % before, mean value” [2, 8] was −54.6%. The “Leukocytes, After 4 weeks value” ([3]; leukaemia patient blood, 4 weeks after one i.v. choline therapy) was 281.60, the “Leukocytes, After − before Δ% before (after 4 weeks)” value ([3]; leukaemia patient blood, 4 weeks after one i.v. choline therapy, compared to the initial value) was −8% and the “Leukocytes after therapy, mean values” ([3]; mean of Table 2 leukaemia measurements, after one i.v. choline therapy for 3 to 5 hours) was 228.53. The “Leukocytes After − before Difference (Δ), mean values” [3, 9] was −25.77, the “Leukocytes After − before Δ % before, mean values” [3, 9] was −10.00% and the “changes in vital parameters (RR, pulse, SO2, ECG, temperature)” value ([4]; 9 tumour patients, during and subsequent to i.v. infusion therapy of 3-5 hours) was “no patient showed relevant changes in the vital parameters”. The “tolerability of the infusion therapy” value ([4]; 9 tumour patients, i.v. infusion for 3-5 hours) was “very well tolerated” and the side effects ([4]; in some cases, on the following day, in general only during few hours, depending on the dose) was “nausea and increased temperature”.
